According to patent US12178838B2, “Synthetic neuromodulatory peptides” (Lactocore, Inc., priority 2019, dated 2024):

Experiments:
Type in all cases: in vivo
[1] = tested on: Sprague Dawley rats; conditions: FQSE 0.5 mg/kg i.n.; diazepam 2 mg/kg IP
Experimental: The five doses of FQSE (SEQ ID NO:10) (0.01, 0.1, 0.5, 1 and 3 mg/kg, CS, Menlo Park, CA) were prepared fresh for each test day in sterile saline and administered intranasally (i.n.) 30 minutes prior to testing. Fifteen rats per group per peptide dose were tested with the exception that there were twenty rats in the vehicle (0) group. Each dose was administered in a randomized order across rats. Prior to dosing, the rats were lightly anesthetized (till loss of righting reflex) with isoflurane (2.5%, 0.5 L/min oxygen), placed in the recumbent position, then a thin plastic pipette (Fischer Scientific) inserted into the nares and peptide administered at a volume of 15-20 uL per nares. […]
Open field tests occurred in open field apparatus constructed of gray Plexiglas (17″L×17″ W×12″ H (43.2 cm×43.2 cm×30.5 cm; Noldus, Leesburg, VA) with digital cameras positioned above the arenas to detect different measures of activity using specialized software (Ethovision, XT12). Rats were first allowed to acclimate to the testing room for 30 minutes while in their home cage. The test was initiated by placing the animal in the center of the open field chamber and behavior recorded for 30 minutes. The observer was not in the room during testing. Testing was conducted under red-light. Arenas were cleaned thoroughly between subjects with LpH disinfectant. […]

[2] = tested on: Wistar rats after chronic unpredictable mild stress; test: CUMS model: Novelty Suppressed Feeding Test
Experimental: (§1) During stress, the animals were placed in individual cells and exposed to stressful conditions each day for 26 days. Two stressors were used daily, applied in the following order: • Day 1. 10 am-6 pm, rats were placed in a cold room for an hour. From 6 PM to 10 am the lights were turned on and off every 2 hours. • Day 2. 10 am-6 pm, cage tilted to 45°. From 6 PM to 10 am water deprivation. • Day 3. 10 am-6 pm, stroboscopic light. From 6 PM to 10 am the light was left on overnight. • Day 4. 10 am-6 pm, wet bedding. From 6 PM to 10 am the animals were put in a small mouse cage. • Day 5. 10 am-6 pm, no bedding. From 6 PM to 10 am the lights were turned on and off every 2 hours. • Day 6. 10 am-6 pm, a new rat was placed in the cage (6-month-old). From 6 PM to 10 am the light was left on overnight. • Day 7. 10 am-6 pm, white noise. From 6 PM to 10 am a stroboscopic light was turned on at night. • Day 8-26. Repetition of previously used stressors in the specified sequence.
(§2) Experimental substances were administered daily starting from the 58-59 day of the experiment. The administration took place 30 minutes before the start of behavioral testing. On days when there were no tests, the substances were administered in the morning.
To assess anxiety and food motivation, a test for eating behavior in a new environment was used. […] The time to start eating and the duration of consumption were recorded. […]

[3] = tested on: Wistar rats after chronic unpredictable mild stress; test: CUMS model: Elevated Plus Maze test
Experimental: as §1, §2
The Elevated Plus Maze test was used to assess the level of anxiety, motor, and exploratory activity of laboratory animals. The apparatus consisted of two closed and two open arms opposite to each other (arm's length 45 cm) with the height of the sides of the closed arm −10 cm. The entire installation was raised on a stand 70 cm above the base. Rats were placed in the center of the maze with their heads facing the open arm. Within 5 minutes the number of exits to open arms and time spent in them, the number of transitions between arms, the time of rest, the duration and number of grooming acts, the number of stretch-attend postures into the open arms of the maze, and the number of rears were recorded. Normally, rodents tend to stay in the dark arms.

[4] = tested on: Wistar rats after chronic unpredictable mild stress; test: CUMS model: Porsolt forced swimming test; conditions: FQSE 0.05 mg/kg i.n.; Diazepam 0.5 mg/kg i.p.; 18 injections
Experimental: as §1, with “sequence. […]” for “sequence.”
The forced swim test is a rodent behavioral test used for the evaluation of antidepressant drugs, antidepressant efficacy of new compounds, and experimental manipulations that are aimed at rendering or preventing depressive-like states. […] In the last 6 minutes, the duration of active (vigorous movement of all limbs) and passive (weak strokes of the hind limbs) swimming and immobility duration were recorded. […]

CN1C(=O)CN=C(c2ccccc2)c2cc(Cl)ccc21 [Diazepam]
center zone entries [1]: 54.3±6.2
total distance [1]: 5289±263 cm
result obtained in NSFT (11 administrations) ([2]; CUMS, FQSE 0.5 mg/kg, Diazepam): anxiolytic effect
latency to start eating ([2]; FQSE 0.5 mg/kg i.n., diazepam 0.5 mg/kg i.p., 11 days): significant decrease in latency
result obtained in EPM (1 administration) ([3]; CUMS, FQSE 0.5 mg/kg, Diazepam): sedative effects
time spent on the open arms ([3]; Diazepam 0.5 mg/kg i.p., 1 injection, vs stressed animals treated with solvent): increase
freezing time ([3]; Diazepam 0.5 mg/kg i.p., vs control group): increase of freezing
immobilization time [4]: did not differ
